Assay results as given in PubChem BioAssay AID2060894 (Molecular Pharmacology Branch, DTP, NCI, 2025).

Tested on: K12877-001-R-J1-PDC complex spheroid viability
Assay: Anticancer human tumor K12877-001-R-J1-PDC patient-derived lung adenocarcinoma cell line growth inhibition [RAS]
Settings: for IC50: curve of first compound; for viability, T/C: stronger effect = lower value
Summary of the method: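 Agents were tested in combination matrices in half-log decrements from a top concentration at or near clinical Cmax (10 microM if undetermined). Targets were multi-cell spheroids of tumour lines plus HUVEC and MSC stromal cells.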

[1] = second compound 0.0316 µM, first compound 0.0316 µM
[2] = second compound 0.0316 µM, first compound 0.1 µM
[3] = second compound 0.0316 µM, first compound 0.316 µM
[4] = second compound 0.0316 µM, first compound 1 µM
[5] = second compound 0.0316 µM, first compound 3.16 µM
[6] = second compound 0.0316 µM, first compound 10 µM
[7] = second compound 0.1 µM, first compound 0.0316 µM
[8] = second compound 0.1 µM, first compound 0.1 µM
[9] = second compound 0.1 µM, first compound 0.316 µM
[10] = second compound 0.1 µM, first compound 1 µM
[11] = second compound 0.1 µM, first compound 3.16 µM
[12] = second compound 0.1 µM, first compound 10 µM
[13] = second compound 0.316 µM, first compound 0.0316 µM
[14] = second compound 0.316 µM, first compound 0.1 µM
[15] = second compound 0.316 µM, first compound 0.316 µM
[16] = second compound 0.316 µM, first compound 1 µM
[17] = second compound 0.316 µM, first compound 3.16 µM
[18] = second compound 0.316 µM, first compound 10 µM
[19] = second compound 1 µM, first compound 0.0316 µM
[20] = second compound 1 µM, first compound 0.1 µM
[21] = second compound 1 µM, first compound 0.316 µM
[22] = second compound 1 µM, first compound 1 µM
[23] = second compound 1 µM, first compound 3.16 µM
[24] = second compound 1 µM, first compound 10 µM
[25] = second compound 3.16 µM, first compound 0.0316 µM
[26] = second compound 3.16 µM, first compound 0.1 µM
[27] = second compound 3.16 µM, first compound 0.316 µM
[28] = second compound 3.16 µM, first compound 1 µM
[29] = second compound 3.16 µM, first compound 3.16 µM
[30] = second compound 3.16 µM, first compound 10 µM
[31] = second compound 10 µM, first compound 0.0316 µM
[32] = second compound 10 µM, first compound 0.1 µM
[33] = second compound 10 µM, first compound 0.316 µM
[34] = second compound 10 µM, first compound 1 µM
[35] = second compound 10 µM, first compound 3.16 µM
[36] = second compound 10 µM, first compound 10 µM
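Also: spheroids exposed to agents for one week before readout.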
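For viability, T/C in this document: tumour cells co-cultured with HUVEC and mesenchymal stem cells in spheroids.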

CC(C)NCC(C(=O)N1CCN(c2ncnc3c2C(C)CC3O)CC1)c1ccc(Cl)cc1 (stereo unspecified) + C=CC(=O)N1CCN(c2nc(OCC3CCCN3C)nc3c(F)c(-c4nc(N)cc(C)c4C(F)(F)F)c(Cl)cc23)C(C)C1
IC50 (second compound 0.00316 µM): 2240 nM
IC50 (second compound 0.01 µM): 1560 nM
IC50 (second compound 0.0316 µM): 1400 nM
IC50 (second compound 0.1 µM): 1420 nM
IC50 (second compound 0.316 µM): 934 nM
IC50 (second compound 1 µM): 1540 nM
viability, T/C (second compound 0.00316 µM, first compound 0.0316 µM): 87.9%
viability, T/C (second compound 0.00316 µM, first compound 0.1 µM): 86.1%
viability, T/C (second compound 0.00316 µM, first compound 0.316 µM): 74.5%
viability, T/C (second compound 0.00316 µM, first compound 1 µM): 78.4%
viability, T/C (second compound 0.00316 µM, first compound 3.16 µM): 38%
viability, T/C (second compound 0.00316 µM, first compound 10 µM): 22%
viability, T/C (second compound 0.01 µM, first compound 0.0316 µM): 82.8%
viability, T/C (second compound 0.01 µM, first compound 0.1 µM): 89.2%
viability, T/C (second compound 0.01 µM, first compound 0.316 µM): 68.8%
viability, T/C (second compound 0.01 µM, first compound 1 µM): 65.8%
viability, T/C (second compound 0.01 µM, first compound 3.16 µM): 30.2%
viability, T/C (second compound 0.01 µM, first compound 10 µM): 18%
viability, T/C [1]: 85.5%
viability, T/C [2]: 90.6%
viability, T/C [3]: 73.3%
viability, T/C [4]: 63.3%
viability, T/C [5]: 23.7%
viability, T/C [6]: 17.6%
viability, T/C [7]: 84%
viability, T/C [8]: 71.5%
viability, T/C [9]: 82.4%
viability, T/C [10]: 63.2%
viability, T/C [11]: 20.2%
viability, T/C [12]: 16.7%
viability, T/C [13]: 79.9%
viability, T/C [14]: 79.9%
viability, T/C [15]: 68.2%
viability, T/C [16]: 51%
viability, T/C [17]: 23.5%
viability, T/C [18]: 19.5%
viability, T/C [19]: 87.8%
viability, T/C [20]: 75.7%
viability, T/C [21]: 84.4%
viability, T/C [22]: 58.6%
viability, T/C [23]: 33.9%
viability, T/C [24]: 20.9%

CC(Nc1ccc2c(c1)OCCn1cc(N3C(=O)OCC3C(F)F)nc1-2)C(N)=O (stereo unspecified) + C#Cc1c(F)ccc2cc(O)cc(-c3ncc4c(N5CC6CCC(C5)N6)nc(OCC56CCCN5CC(F)C6)nc4c3F)c12
IC50 (second compound 0.0316 µM): 4900 nM
IC50 (second compound 0.1 µM): 3940 nM
IC50 (second compound 0.316 µM): 4320 nM
IC50 (second compound 1 µM): 4490 nM
IC50 (second compound 3.16 µM): 4630 nM
IC50 (second compound 10 µM): 2910 nM
viability, T/C [1]: 97.5%
viability, T/C [2]: 88.9%
viability, T/C [3]: 80.2%
viability, T/C [4]: 69.6%
viability, T/C [5]: 60.4%
viability, T/C [6]: 37.4%
viability, T/C [7]: 107%
viability, T/C [8]: 82.7%
viability, T/C [9]: 84.6%
viability, T/C [10]: 62.7%
viability, T/C [11]: 56.7%
viability, T/C [12]: 37%
viability, T/C [13]: 110%
viability, T/C [14]: 88.9%
viability, T/C [15]: 73.9%
viability, T/C [16]: 71.2%
viability, T/C [17]: 55.1%
viability, T/C [18]: 38.8%
viability, T/C [19]: 96.3%
viability, T/C [20]: 90.3%
viability, T/C [21]: 78.5%
viability, T/C [22]: 64.5%
viability, T/C [23]: 60.3%
viability, T/C [24]: 37%
viability, T/C [25]: 103%
viability, T/C [26]: 89.4%
viability, T/C [27]: 79.6%
viability, T/C [28]: 65.1%
viability, T/C [29]: 64.8%
viability, T/C [30]: 35.2%
viability, T/C [31]: 99.5%
viability, T/C [32]: 75.7%
viability, T/C [33]: 68.8%
viability, T/C [34]: 63%
viability, T/C [35]: 66.5%
viability, T/C [36]: 23.8%

CC(=O)OC12COC1CC(O)C1(C)C(=O)C(O)C3=C(C)C(OC(=O)C(O)C(NC(=O)OC(C)(C)C)c4ccccc4)CC(O)(C(OC(=O)c4ccccc4)C21)C3(C)C (stereo unspecified) + C#Cc1c(F)ccc2cc(O)cc(-c3ncc4c(N5CC6CCC(C5)N6)nc(OCC56CCCN5CC(F)C6)nc4c3F)c12
IC50 (second compound 0.0316 µM): < 31.6 nM
IC50 (second compound 0.1 µM): < 31.6 nM
IC50 (second compound 0.316 µM): < 31.6 nM
IC50 (second compound 1 µM): < 31.6 nM
IC50 (second compound 3.16 µM): < 31.6 nM
IC50 (second compound 10 µM): < 31.6 nM
viability, T/C [1]: 8.75%
viability, T/C [2]: 6.43%
viability, T/C [3]: 6.63%
viability, T/C [4]: 5.48%
viability, T/C [5]: 7.34%
viability, T/C [6]: 14.9%
viability, T/C [7]: 8.48%
viability, T/C [8]: 6.66%
viability, T/C [9]: 4.24%
viability, T/C [10]: 5.34%
viability, T/C [11]: 6.17%
viability, T/C [12]: 16%
viability, T/C [13]: 9.56%
viability, T/C [14]: 6.37%
viability, T/C [15]: 5.39%
viability, T/C [16]: 5.34%
viability, T/C [17]: 6.63%
viability, T/C [18]: 17.3%
viability, T/C [19]: 8.81%
viability, T/C [20]: 6.46%
viability, T/C [21]: 6.04%
viability, T/C [22]: 5.11%
viability, T/C [23]: 7.06%
viability, T/C [24]: 18.1%
viability, T/C [25]: 7.54%
viability, T/C [26]: 5.83%
viability, T/C [27]: 4.07%
viability, T/C [28]: 4.99%
viability, T/C [29]: 6.13%
viability, T/C [30]: 15.7%
viability, T/C [31]: 5.58%
viability, T/C [32]: 3.71%
viability, T/C [33]: 4.04%
viability, T/C [34]: 4.11%
viability, T/C [35]: 5.73%
viability, T/C [36]: 15.2%
